Results reported in paper PMC6131501, “Urate transporter inhibitor lesinurad is a selective peroxisome proliferator-activated receptor gamma modulator (sPPARγM) in vitro” (Scientific Reports, 2018).
Entries after “also recorded” stand apart in the source; their conditions may differ. Where two headings read alike, the source gives them in different places. No end group written: not given here. *: point of attachment. Biotin = O=C1N[C@H]2[C@H](CS[C@H]2CCCCC(=O)*)N1

Legend:
murine PPARγ = settings: read-out: PPARγ (EC50) literature; cited from earlier work
PPARγ [1] = biological target: T1, PPARγ (Homo sapiens, UniProt P37231); assay: Gal4 hybrid reporter gene assay PPARγ; format: cell-based; settings: Gal4 hybrid reporter, HEK293T, 12-14 h; mean ± SEM, at least three experiments
T1 construct: expressed in transfected cells; host or cells: HEK293T
T1 sequence (P37231 238-503 limits assumed): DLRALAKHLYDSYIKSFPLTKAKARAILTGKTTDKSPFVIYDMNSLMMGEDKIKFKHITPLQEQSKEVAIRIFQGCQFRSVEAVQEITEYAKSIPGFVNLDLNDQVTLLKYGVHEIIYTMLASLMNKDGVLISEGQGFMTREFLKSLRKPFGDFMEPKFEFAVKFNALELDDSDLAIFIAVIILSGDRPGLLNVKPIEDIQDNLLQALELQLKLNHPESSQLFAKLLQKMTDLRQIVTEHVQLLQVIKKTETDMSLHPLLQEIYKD
Description: (§1) These in vitro test systems are based on a constitutively expressed hybrid receptor composed of the ligand binding domain of the respective human nuclear receptor and the DNA binding domain of the yeast receptor Gal4. A Gal4-inducible firefly luciferase serves as reporter gene and a constitutively expressed renilla luciferase is used for normalization of transfection efficacy and internal toxicity control[18],[19]. […] The Gal4-fusion receptor plasmids pFA-CMV-hPPARα-LBD[50], pFA-CMV-hPPARγ-LBD[50], pFA-CMV-hPPARδ-LBD[50], pFA-CMV-hLXRα-LBD[51], pFA-CMV-hLXRβ-LBD[51], pFA-CMV-hRXRα-LBD[52], pFA-CMV-hRXRβ-LBD[52], pFA-CMV-hRXRγ-LBD[52], pFA-CMV-hRARα-LBD[52], pFA-CMV-hRARβ-LBD[52], pFA-CMV-hRARγ-LBD[52], pFA-CMV-hFXR-LBD[53], pFA-CMV-hVDR-LBD[52], pFA-CMV-hCAR-LBD[52] and pFA-CMV-hPXR-LBD[52] coding for the hinge region and ligand binding domain (LBD) of the canonical isoform of the respective nuclear receptor have been reported previously. pFR-Luc (Stratagene) was used as reporter plasmid and pRL-SV40 (Promega) for normalization of transfection efficiency and cell growth.
(§2) HEK293T cells were grown in DMEM high glucose, supplemented with 10% FCS, sodium pyruvate (1 mM), penicillin (100 U/mL) and streptomycin (100 μg/mL) at 37 °C and 5% CO2. The day before transfection, HEK293T cells were seeded in 96-well plates (3·10^4 cells/well). Before transfection, medium was changed to Opti-MEM without supplements. Transient transfection was carried out using Lipofectamine LTX reagent (Invitrogen) according to the manufacturer’s protocol with pFR-Luc (Stratagene), pRL-SV40 (Promega) and the corresponding Gal4-fusion nuclear receptor plasmid. 5 h after transfection, medium was changed to Opti-MEM supplemented with penicillin (100 U/mL), streptomycin (100 μg/mL), now additionally containing 0.1% DMSO and the respective test compound or 0.1% DMSO alone as untreated control. Each concentration was tested in duplicates and each experiment was repeated independently at least three times. Following overnight (12-14 h) incubation with the test compounds, cells were assayed for luciferase activity using Dual-Glo™ Luciferase Assay System (Promega) according to the manufacturer’s protocol. Luminescence was measured with an Infinite M200 luminometer (Tecan Deutschland GmbH). […] Fold activation was obtained by dividing the mean RLU of a test compound at a respective concentration by the mean RLU of untreated control.

3T3-L1 adipocytes = assay: Differentiation of 3T3-L1 adipocytes, Oil Red O staining; format: cell-based, murine; settings: rosiglitazone 2 μM; lesinurad up to 50 μM
Procedure: For this, 3T3-L1 cells were treated with insulin, dexamethasone and isobutylmethylxanthine (IBMX) to induce their differentiation into mature adipocytes. […] 3T3-L1 cells were subcultured in DMEM containing 10% newborn calf serum in a humidified atmosphere at 37 °C, 5% CO2. Cells were differentiated into adipocytes within 14 days according to the method[54] reported by Zebisch and colleagues. In brief, cells were seeded in 6-well plates ([…]). […] At day 5, medium was changed to contain only insulin for another two days. Cells were then kept for lipid droplet accumulation in basal medium without additions until day 15. […] Differentiation of 3T3-L1 cells to adipocytes was confirmed by Oil Red O staining. For this, cells were washed with PBS and then fixed for 60 min with a formaldehyde solution (4% in PBS). Subsequently, cells were rinsed with 60% isopropanol and incubated with Oil Red O solution (0.3%) for 120 min.

[2] = test system: PPARγ-regulated genes in 3T3-L1 adipocytes; assay: PPARγ target gene quantification in 3T3-L1 adipocytes (qPCR); format: cell-based, murine
Procedure: 3T3-L1 cells were cultured and differentiated as described above. Cells were then lysed using TRIzol reagent (Ambion, Life Technologies, Carlsbad, CA, USA), and mRNA was isolated following the manufacturer’s protocol. DNA contaminations were digested using DNase (DNase I, RNase-free kit; Thermo Scientific, Waltham, MA, USA) and mRNA concentrations were measured with a NanoDrop2000 spectrophotometer (Thermo Scientific, Waltham, MA, USA). Subsequently, reverse transcription was performed using the high capacity RNA-to-cDNA kit (Applied Biosystems, Foster City, CA, USA). Quantitative real-time PCR was performed using specific primers for CD36, […] and CPT1A with a StepOnePlus real-time PCR system (Applied Biosystems, Foster City, CA, USA). Non-POU domain containing octamer binding protein (NonO) was used as reference gene for 3T3-L1. All samples were measured in duplicate and were analyzed using the ΔΔCt method. The following PCR primers were used: Adiponectin: 5′-TGACGACACCAAAAGGGCTC-3′ (fwd) and 5′-CACAAGTTCCCTTGGGTGGA-3′ (rev); CD36: 5′-TGCTGGAGCTGTTATTGGTG-3′ (fwd) and 5′-CATGAGAATGCCTCCAAACA-3′ (rev); FABP4: 5′-AGAAGTGGGAGTGGGCTTTG-3′ (fwd) and 5′-ACTCTCTGACCGGATGGTGA-3′ (rev); GLUT4: 5′-TGAAGAACGGATAGGGAGCAG-3′ (fwd) and 5′-GAAGTGCAAAGGGTGAGTGAG-3′ (rev); NonO: 5′-TGCTCCTGTGCCACCTGGTACTC-3′ (fwd) and 5′-CCGGAGCTGGACGGTTGAATGC-3′ (rev).
Results (expressed as mean ± SEM % relative mRNA expression; n = 3): Adiponectin: untreated (0.1% DMSO): 124 ± 45%; […];

PPARγ [3] = settings: cited from earlier work
PPARα [4] = settings: cited from earlier work
PPARα [5] = biological target: T2, PPARα (Homo sapiens, UniProt Q07869); assay: Gal4 hybrid reporter gene assay PPARα; format: cell-based; settings: Gal4 hybrid reporter, HEK293T, 12-14 h; mean ± SEM, at least three experiments
T2 construct: expressed in transfected cells; host or cells: HEK293T
T2 sequence (Q07869 239-466 limits assumed): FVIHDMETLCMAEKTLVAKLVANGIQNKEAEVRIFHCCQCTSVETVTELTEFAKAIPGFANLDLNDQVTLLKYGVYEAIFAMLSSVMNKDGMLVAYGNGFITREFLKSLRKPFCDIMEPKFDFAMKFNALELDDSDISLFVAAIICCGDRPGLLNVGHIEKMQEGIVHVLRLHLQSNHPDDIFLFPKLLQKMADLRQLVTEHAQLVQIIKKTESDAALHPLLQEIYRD
Description: as §1, §2

PXR = test system: PXR; design: method as in PMID 16565514; settings: literature value; cited from earlier work
[6] = test system: adiponectin plasma levels; design: method as in PMID 19048458; settings: in men; cited from earlier work
[7] = design: method as in PMID 18274627; settings: HEK293T cells; cited from earlier work
3T3-L1 mouse fibroblasts = test system: 3T3-L1 mouse fibroblasts; design: method as in PMID 19048458; settings: cited from earlier work
[8] = biological target: recombinant PPARγ LBD ligand binding domain fused to N-terminal GFP (human); assay: AlphaScreen or HTRF; homogeneous time-resolved FRET; 12 nM GFP-PPARγ LBD (acceptor) and 12 nM streptavidin-terbium cryptate with biotinylated coactivator peptide (donor); lesinurad at varying concentrations, 1% DMSO; 25 mM HEPES pH 7.5, 150 mM KF, 5% glycerol, 0.1% CHAPS, 5 mM DTT; 2 h at RT; referenced to recruitment with 1 μM rosiglitazone
recombinant PPARγ LBD ligand binding domain fused to N-terminal GFP (human), sequence (P37231 whole entry, the tested form may be a part): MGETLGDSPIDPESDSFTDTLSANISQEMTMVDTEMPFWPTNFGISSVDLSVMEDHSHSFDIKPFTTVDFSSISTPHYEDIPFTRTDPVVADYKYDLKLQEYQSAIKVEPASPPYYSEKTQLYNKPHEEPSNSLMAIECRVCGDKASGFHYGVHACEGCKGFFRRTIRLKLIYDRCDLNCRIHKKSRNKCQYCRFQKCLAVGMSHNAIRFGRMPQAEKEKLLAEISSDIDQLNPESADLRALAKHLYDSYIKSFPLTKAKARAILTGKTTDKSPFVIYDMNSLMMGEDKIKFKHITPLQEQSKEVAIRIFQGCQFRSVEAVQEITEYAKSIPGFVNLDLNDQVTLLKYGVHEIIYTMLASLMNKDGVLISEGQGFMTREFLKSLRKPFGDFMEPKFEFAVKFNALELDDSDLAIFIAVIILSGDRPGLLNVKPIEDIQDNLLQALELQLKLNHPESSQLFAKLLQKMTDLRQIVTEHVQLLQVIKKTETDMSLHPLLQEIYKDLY

In the case of O=C(O)[C@H](Oc1cccc(C(F)(F)F)c1)c1ccc(Cl)cc1 [arhalofenic acid], the EC50 (murine PPARγ) is given as 12 µM and the EC50 (PPARγ [1]) is given as 470 ± 20 nM.

With CN(CCOc1ccc(CC2SC(=O)NC2=O)cc1)c1ccccn1 (centres unmarked) [rosiglitazone] the “lipid accumulation during differentiation (Oil Red O staining)” value (3T3-L1 adipocytes) was “massive accumulation of lipid droplets; also recorded: massive storage of fat”, the “Adiponectin relative mRNA expression” value [2] was 455 ± 111% and the “CD36 relative mRNA expression” value [2] was 468 ± 8%. For the same molecule, the “FABP4 relative mRNA expression” value [2] was 338 ± 46%, the “GLUT4 relative mRNA expression” value [2] was 695 ± 145% and the EC50 (PPARγ [3]; literature value) was […].

For CCO[C@@H](Cc1ccc(OCCc2ccc(OS(C)(=O)=O)cc2)cc1)C(=O)O [tesaglitazar], the EC50 (murine PPARγ) is given as 0.25 µM, the EC50 (PPARγ [1]) is given as 49 ± 5 nM and the EC50 (PPARα [4]; hybrid transactivation assay, 40 hours incubation, read-out: PPARα (EC50) literature) is given as 1.7 µM. The EC50 (PPARα [5]) was 0.099 ± 0.005 µM.

For CCOP(=O)(OCC)C(=Cc1cc(C(C)(C)C)c(O)c(C(C)(C)C)c1)P(=O)(OCC)OCC [SR12813], the EC50 (PXR) is given as 140 nM.

For CCc1oc2ccccc2c1C(=O)c1cc(Br)c(O)c(Br)c1 [benzbromarone], the adiponectin plasma levels [6] is given as “enhanced adiponectin plasma levels”, the “expression of lipoprotein lipase (LPL) and acyl-CoA-synthetase” value [7] is given as “induced” and the PPARγ literature activity (PPARγ [3]; no precise activity value reported) is given as “active[24]***”. The “expression of CD36, adiponectin and FABP4 (aP2)” value (3T3-L1 mouse fibroblasts) was “significantly induced”.

For CC(C)(Oc1ccc(C(=O)c2ccc(Cl)cc2)cc1)C(=O)O [fenofibric acid], the EC50 (PPARα [4]; literature value) is given as […] and the EC50 (PPARα [5]) is given as 6.5 ± 0.5 µM.

CC(=O)NCCOC(=O)[C@H](Oc1cccc(C(F)(F)F)c1)c1ccc(Cl)cc1 [arhalofenate] gave an EC50 (PPARγ [1]) of 5400 ± 1100 nM.

B1: CBP derived peptide (biotin-…) (peptide)
peptide: Biotin-NLVPDAASKHKQLSELLRGGSGS
Molecule B1 has a % recruitment with lesinurad relative to 1 μM rosiglitazone [8] of 59% and an EC50 of lesinurad for induced recruitment [8] of 44 µM.
